# Experimental data as given in patent US10221163B2 (priority 2015, dated 2019).
# Like-named read-outs stand apart in the source and are kept apart here.
# Key:
# IMP-1 = IMP-1 (Serratia marcescens, UniProt P52699); test: biochemical; assay type: biochemical; conditions: fluorescence assay, CCF2-FA substrate, 2 pM enzyme, 2 hours at 25° C.; read-out: IMP-1 IC50
# Outline: (§1)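 IC50 values derive from 4-parameter fits of percent inhibition against inhibitor concentration on semi-log axes. Activity was monitored by fluorescence with the CCF2-FA substrate after a 2-hour, 25° C incubation of compound, enzyme and substrate.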
# NDM-1 = NDM-1 (Klebsiella pneumoniae, UniProt C7C422); test: biochemical; assay type: biochemical; conditions: fluorescence assay, CCF2-FA substrate, 1 pM enzyme, 2 hours at 25° C.; read-out: NDM-1 IC50
# Outline: as §1
# VIM-1 = VIM-1 (Pseudomonas aeruginosa (strain ATCC 15692 / DSM 22644 / CIP 104116 / JCM 14847 / LMG 12228 / 1C / PRS 101 / PAO1), UniProt A0A0F7KYQ8); test: biochemical; conditions: CCF2-FA substrate, 30 pM enzyme, 2 hours at 25° C.
# Outline: as §1
# [1] = system: Escherichia coli expressing NDM-1 (CLB30005, CLB30016); assay type: cell-based; conditions: with imipenem 1 μg/ml; for Escherichia coli MITC95: NDM-1 strain, 95% inhibition of growth; for Escherichia coli expressing NDM-1 (CLB30016) MITC95: 95% inhibition of bacterial growth
# Outline: (§2)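 Imipenem 1 μg/ml + inhibitor; MBL-expressing clinical strains in 1.1×CAMHB, inoculum from saline suspension diluted 1:100; 35° C, 22–24 h; absorbance read-out.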
# [2] = system: Klebsiella pneumoniae expressing VIM-1 (IHMA599644); assay type: cell-based; conditions: for Klebsiella pneumoniae MITC95: VIM-1 strain IHMA599644, with imipenem 1 μg/ml, 95% inhibition of growth; for Klebsiella pneumoniae expressing VIM-1 (IHMA599644) MITC95: with imipenem 1 μg/ml, 95% inhibition of bacterial growth
# Outline: as §2
# [3] = system: Serratia marcescens expressing IMP-1 (CL5741); assay type: cell-based; conditions: for Serratia marcescens MITC95: IMP-1 strain CL5741, with imipenem 1 μg/ml, 95% inhibition of growth; for Serratia marcescens expressing IMP-1 (CL5741) MITC95: with imipenem 1 μg/ml, 95% inhibition of bacterial growth
# Outline: as §2
# [4] = system: Pseudomonas aeruginosa efflux+ (MB9798), IMP-1; assay type: cell-based; parameters: Concentration of metallo-β-lactamase inhibitor which restores susceptibility of efflux + (MB9798) strain to imipenem: unit not given here; conditions: C, D serine β-lactamase inhibitor closely related to relebactam; for Concentration of metallo-β-lactamase inhibitor which restores susceptibility of efflux + (MB9798) strain to imipenem: imipenem at 2 μg/mL, in the presence of a class A; for P. aeruginosa expressing IMP-1, efflux + (MB9798) MITC95: concentration restoring susceptibility to imipenem at 2 μg/mL in the presence of a class A
# Outline: (§3)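 P. aeruginosa PAO1-derived IMP-1 strains, efflux+ MB9798 and efflux− MB9799, tested by standard microbroth MIC with imipenem and/or ceftazidime fixed, usually at CLSI breakpoint, plus fixed class A/C β-lactamase inhibitor against AmpC. Inhibitor titrated; concentration restoring susceptibility recorded; MB9798/MB9799 fold difference indicates efflux.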
# [5] = system: Pseudomonas aeruginosa efflux− (MB9799), IMP-1; assay type: cell-based; conditions: C, D serine β-lactamase inhibitor closely related to relebactam; for Concentration of metallo-β-lactamase inhibitor which restores susceptibility of efflux − (MB9799) strain to imipenem: imipenem at 2 μg/mL, in the presence of a class A; for P. aeruginosa expressing IMP-1, efflux − (MB9799) MITC95: concentration restoring susceptibility to imipenem at 2 μg/mL in the presence of a class A
# Outline: as §3
# [6] = system: Pseudomonas aeruginosa MB9798 vs MB9799
# Outline: as §3
# [7] = fluorescence assay, read-out: VIM-1 IC50
# [8] = fold difference between efflux+ (MB9798) and efflux− (MB9799) strains, imipenem at 2 μg/mL
# [9] = ratio MITC95 PA_9798/MITC95 PA_9799
# Sequence of NDM-1 (C7C422 whole entry, looked up, species assumed): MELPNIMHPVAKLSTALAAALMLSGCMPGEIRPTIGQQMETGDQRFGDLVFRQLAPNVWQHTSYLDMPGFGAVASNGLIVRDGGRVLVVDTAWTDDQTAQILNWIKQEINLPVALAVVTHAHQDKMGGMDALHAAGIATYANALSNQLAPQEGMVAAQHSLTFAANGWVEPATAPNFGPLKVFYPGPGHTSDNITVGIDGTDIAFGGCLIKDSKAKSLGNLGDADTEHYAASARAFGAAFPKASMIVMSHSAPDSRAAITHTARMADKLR
# Sequence of IMP-1 (P52699 whole entry, looked up, species assumed): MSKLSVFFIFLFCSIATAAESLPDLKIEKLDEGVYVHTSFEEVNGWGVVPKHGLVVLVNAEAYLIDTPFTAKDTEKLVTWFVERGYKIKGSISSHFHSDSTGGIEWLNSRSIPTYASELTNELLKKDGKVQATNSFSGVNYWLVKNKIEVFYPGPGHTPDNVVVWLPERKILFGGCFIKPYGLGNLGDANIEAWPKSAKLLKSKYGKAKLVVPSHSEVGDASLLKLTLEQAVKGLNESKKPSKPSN
SMILES,IC50 (IMP-1) [pM],IC50 (NDM-1) [pM],IC50 (VIM-1; [7]) [pM],Escherichia coli MITC95 [1] [µM],Klebsiella pneumoniae MITC95 [2] [µM],Serratia marcescens MITC95 [3] [µM],Concentration of metallo-β-lactamase inhibitor which restores susceptibility of efflux + (MB9798) strain to imipenem [4],Concentration of metallo-β-lactamase inhibitor which restores susceptibility of efflux − (MB9799) strain to imipenem [5],"Efflux ratio [6, 8]",Escherichia coli expressing NDM-1 (CLB30016) MITC95 [1] [µM],Klebsiella pneumoniae expressing VIM-1 (IHMA599644) MITC95 [2] [µM],Serratia marcescens expressing IMP-1 (CL5741) MITC95 [3] [µM],"P. aeruginosa expressing IMP-1, efflux + (MB9798) MITC95 [4] [µM]","P. aeruginosa expressing IMP-1, efflux − (MB9799) MITC95 [5] [µM]","Efflux ratio [6, 9]","IC50 (VIM-1; VIM-1 IC50, fluorescence assay) [pM]"
"NCc1nc2cc(-c3ccc(S(=O)(=O)N[C@@H](CN)CO)c(S(N)(=O)=O)c3-c3nn[nH]n3)ccc2s1 [Example 475, (S)-N1-(1-amino-3-hydroxypropan-2-yl)-4-(2-(aminomethyl)benzo[d]thiazol-5-yl)-3-(2H-tetrazol-5-yl)benzene-1,2-disulfonamide]",130,60.4,87,0.7813,1.563,1.563,0.7813,0.7813,1.00,,,,,,,
"Nc1ccc(-c2ccc(S(=O)(=O)N[C@H]3CCNC3)c(S(N)(=O)=O)c2-c2nn[nH]n2)cn1 [Example 195, (S)-4-(6-aminopyridin-3-yl)-N^1-(pyrrolidin-3-yl)-3-(2H-tetrazol-5-yl)benzene-1,2-disulfonamide]",523,169,182,,,,,,,0.5859,1.563,0.5859,0.7813,0.7813,1.00,
"NCC(CN)NS(=O)(=O)c1ccc(-c2cccc(C3N=NC(N)=N3)c2)c(-c2nn[nH]n2)c1S(N)(=O)=O (stereo not drawn) [Example 229, 3′-(5-amino-3H-1,2,4-triazol-3-yl)-N4-(1,3-diaminopropan-2-yl)-2-(2H-tetrazol-5-yl)-[1,1′-biphenyl]-3,4-disulfonamide]",173,30.8,120,,,,,,,0.7813,3.125,3.125,1.563,3.125,0.50,
NCCNS(=O)(=O)c1ccc(-c2ccc3nccn3c2)c(-c2nn[nH]n2)c1S(N)(=O)=O [Example 401],483,197,89.7,0.7813,1.563,0.3906,1.563,0.7813,2.00,,,,,,,
"CN1CCC(CNS(=O)(=O)c2ccc(-c3cccc4sc(N)nc34)c(-c3nnn[nH]3)c2S(N)(=O)=O)C1.O=C(O)C(F)(F)F (stereo not drawn) [Example 102, 3-((4-(2-aminobenzo[d]thiazol-4-yl)-2-sulfamoyl-3-(1H-tetrazol-5-yl)phenylsulfonamido)methyl)-1-methylpyrrolidin-1-ium 2,2,2-trifluoroacetate]",263,32.4,,,,,,,,3.125,3.125,1.563,0.7813,1.563,0.50,194
"C[C@H](CN)NS(=O)(=O)c1ccc(-c2cccc3[nH]c(N)nc23)c(-c2nn[nH]n2)c1S(N)(=O)=O [Example 187, 4-(2-amino-1H-benzo[d]imidazol-4-yl)-N^1—((R)-1-aminopropan-2-yl)-3-(2H-tetrazol-5-yl)benzene-1,2-disulfonamide]",230,21.2,,,,,,,,0.5859,1.172,0.7813,0.3906,0.7813,0.50,98.2
"CN([C@H]1CCNC1)S(=O)(=O)c1ccc(-c2cccc3sc(N)nc23)c(-c2nnn[nH]2)c1S(N)(=O)=O [Example 65, 4-(2-amino-1,3-benzothiazol-4-yl)-N1-methyl-N1-[(3S)-pyrrolidin-3-yl]-3-(1H-tetrazol-5-yl)benzene-1,2-disulfonamide]",703,464,1430,,,,,,,6.25,3.125,3.125,3.125,1.563,2.00,
"CS(=O)(=O)Nc1nc2c(-c3ccc(S(=O)(=O)N4CCNCC4)c(S(N)(=O)=O)c3-c3nn[nH]n3)cccc2s1 [Example 156, 3-(2-(Methylsulfonamido)benzo[d]thiazol-4-yl)-6-(piperazin-1-ylsulfonyl)-2-(2H-tetrazol-5-yl)benzenesulfonamide]",898,290,1740,,,,,,,6.25,25,12.5,12.5,6.25,2.00,
"Nc1nc2c(-c3ccc(S(=O)(=O)NCc4ccccn4)c(S(N)(=O)=O)c3-c3nnn[nH]3)cccc2s1.O=C(O)C(F)(F)F [Example 106, 2-((4-(2-aminobenzo[d]thiazol-4-yl)-2-sulfamoyl-3-(1H-tetrazol-5-yl)phenylsulfonamido)methyl)pyridin-1-ium 2,2,2-trifluoroacetate]",379,73.3,236,,,,,,,6.25,12.5,3.125,12.5,3.125,4.00,
NC[C@@H](O)CNS(=O)(=O)c1ccc(-c2ccc3nccn3c2)c(-c2nn[nH]n2)c1S(N)(=O)=O [Example 420],974,230,125,0.3906,3.125,1.563,1.563,0.7813,2.00,,,,,,,
